Reference: patent US7507547B2, “Screening assays for antioxidants and antiproliferative compounds” (University of Massachusetts, priority 2004, dated 2009)
Read-outs that look alike come from different tables or passages of the source.

Key:
[1] = target: T1, NTR1 (Homo sapiens, UniProt P30989); test: ^125I-NT binding to PC3 cells; conditions: for Effect on NT binding in PC3 cells: n=3; for NT Binding Assay: ability to enhance NT binding in PC3 cells; for NT binding increased as much as / up to (fold): maximal enhancement of NT binding to PC3 cells
T1 construct: endogenous in cells; host or cells: PC3 cells (ATCC)
T1 sequence (P30989 whole entry): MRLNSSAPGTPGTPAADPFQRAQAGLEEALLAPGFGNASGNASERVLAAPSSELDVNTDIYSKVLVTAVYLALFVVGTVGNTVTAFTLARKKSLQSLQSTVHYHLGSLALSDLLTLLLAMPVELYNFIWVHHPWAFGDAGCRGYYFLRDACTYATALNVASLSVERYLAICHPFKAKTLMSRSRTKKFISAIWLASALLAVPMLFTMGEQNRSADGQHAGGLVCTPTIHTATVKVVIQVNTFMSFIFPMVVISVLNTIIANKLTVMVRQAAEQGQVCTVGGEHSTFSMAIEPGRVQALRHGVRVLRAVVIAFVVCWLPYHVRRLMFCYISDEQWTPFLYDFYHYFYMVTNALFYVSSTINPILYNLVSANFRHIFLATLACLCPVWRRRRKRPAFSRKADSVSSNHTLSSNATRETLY

[2] = set-up: key: +: All of the compounds listed in Table 12 were anticancerous; conditions: from anticancer literature; cited from earlier work
[3] = tested on: NT-induced inositol phosphate (IP) formation in PC3 cells; test: NT-induced IP formation in PC3 cells; format: cell-based; conditions: for IC50: Homo sapiens, PC-3; for IP Formation Efficacy (% decrease): maximal % decrease in NT-induced IP formation
[4] = tested on: PC3 cells; test: NT-induced proliferation of PC3 cells (^3H-thymidine); format: cell-based; conditions: Homo sapiens, PC-3; 24 hours, 10 nM NT; read-out: IC50 for inhibition of NT-induced proliferation
[5] = general reducing agents and antioxidants
[6] = [agent] giving 50% decrease in IP formation
[7] = maximal % increase in NT binding observed for each agent
[8] = [agent] that decreased IP formation by 40%
[9] = [agent] giving 75% increase in NT binding

## O=C1O[C@H]([C@@H](O)CO)C(O)=C1O [ascorbic acid]
[1]; [5]
  Effect on NT binding: not much affected
[1]; used at 20-180 μM
  Effect on NT binding in PC3 cells: ineffective

## O[C@H](CS)[C@H](O)CS (racemic) [DTT, dithiothreitol]
[1]; [5]
  Effect on NT binding: not much affected

## Cc1cc2nc3c(=O)[nH]c(=O)nc-3n(C[C@H](O)[C@H](O)[C@H](O)CO)c2cc1C [riboflavin]
[1]; [5]
  Effect on NT binding: not much affected
[1]; used at 20-180 μM
  Effect on NT binding in PC3 cells: ineffective

## [BH4-].[Na+] [sodium borohydride]
[1]
  Effect on NT binding: not much affected
[1]; used at 1-3 mM
  Effect on NT binding in PC3 cells: without effect

## Cn1cc(C2=C(c3ccc(Cl)cc3Cl)C(=O)NC2=O)c2ccccc21 [SB-216763]
[2]
  Anti-cancer: +
[1]
  NT Binding Assay: +

## CCOC(=O)C1=C(C)NC(C)=C(C(=O)OC)C1c1cccc(Cl)c1Cl (stereo not drawn) [felodipine]
[3]; [6]
  IC50: 1 µM

## COC(=O)C1=C(C)NC(C)=C(C(=O)OCCN(C)Cc2ccccc2)C1c1cccc([N+](=O)[O-])c1 (stereo not drawn) [nicardipine]
[4]
  IC50: 0.1 µM
[3]; [6]
  IC50: 3 µM

## CC(=O)N[C@@H](CS)C(=O)O [N-acetyl cysteine]
[1]; used at 1-3 mM
  Effect on NT binding in PC3 cells: without effect

## COc1cc2ncnc(Nc3cccc(Cl)c3)c2cc1OC [AG1478]
[2]
  Anti-cancer: +
[1]
  NT Binding Assay: +

## Cc1ncc(C[n+]2csc(CCO)c2C)c(N)n1 [thiamine]
[1]; [5]
  Effect on NT binding: not much affected
[1]; used at 20-180 μM
  Effect on NT binding in PC3 cells: ineffective

## Fc1ccc(C(c2ccc(F)cc2)N2CCN(C/C=C/c3ccccc3)CC2)cc1 [flunarizine]
[1]; [7]
  NT Binding Efficacy % increase: 45 % increase

## CC(=O)O[C@H]1C(=O)[C@@]2(C)[C@H]([C@H](OC(=O)c3ccccc3)[C@]3(O)C[C@H](OC(=O)[C@H](O)[C@@H](NC(=O)c4ccccc4)c4ccccc4)C(C)=C1C3(C)C)[C@]1(OC(C)=O)CO[C@@H]1C[C@@H]2O [Taxol]
[1]
  NT Binding Assay: +

## COCCOC(=O)C1=C(C)NC(C)=C(C(=O)OC(C)C)C1c1cccc([N+](=O)[O-])c1 (stereo not drawn) [NIM, nimodipine]
[3]; [6]
  IC50: 6 µM

## c1ccc2c(c1)[I+]c1ccccc1-2 [Diphenylene iodonium]
[2]
  Anti-cancer: +
[1]
  NT Binding Assay: +
[3]; [6]
  IC50: 35 µM

## CCCc1c(OCCCCc2nnn[nH]2)ccc(C(C)=O)c1O [LY171883]
[1]; LOX blockers
  NT Binding Efficacy % increase: 157 % increase
[1]; [agent] giving 100% increase in NT binding
  EC50: 34 µM

## C[C@@H]1O[C@@H](OC[C@H]2O[C@@H](Oc3c(-c4ccc(O)c(O)c4)oc4cc(O)cc(O)c4c3=O)[C@H](O)[C@@H](O)[C@@H]2O)[C@H](O)[C@H](O)[C@H]1O [rutin]
[1]; flavonoids
  Efficacy for altering NT binding to NTR: inactive

## Cc1cc2c(C(C)C)c(O)c(O)c(C=O)c2c(O)c1-c1c(C)cc2c(C(C)C)c(O)c(O)c(C=O)c2c1O [Gossypol, gossypol]
[3]; [8]
  IC50: 20 µM

## C=C(C)[C@H]1Cc2c(ccc3c2O[C@@H]2COc4cc(OC)c(OC)cc4[C@@H]2C3=O)O1 [rotenone]
[2]
  Anti-cancer: +
[1]
  NT Binding Assay: +

## Cc1c(C)c2c(c(C)c1O)CCC(C)(C(=O)O)O2 (stereo not drawn) [trolox]
[1]; [5]
  Effect on NT binding: not much affected
[1]; used at 10-100 μM
  Effect on NT binding in PC3 cells: without effect

## CN1CCN(CCCN2c3ccccc3Sc3ccc(C(F)(F)F)cc32)CC1 [trifluoperazine]
[1]; [7]
  NT Binding Efficacy % increase: 16 % increase
[3]; [agent] at which IP formation was decreased by 50%
  IC50: > 100 µM
[3]
  IP Formation Efficacy (% decrease): 14 % decrease

## O=c1oc2c(O)c(O)cc3c(=O)oc4c(O)c(O)cc1c4c23 [ellagic acid]
[1]; used at 10-100 μM
  Effect on NT binding in PC3 cells: without effect

## Oc1cc(O)c2c(c1)O[C@H](c1ccc(O)c(O)c1)[C@@H](O)C2 [(+)-catechin]
[1]; used at 10-100 μM
  Effect on NT binding in PC3 cells: without effect

## CC1=C(/C=C/C(C)=C/C=C/C(C)=C/C(=O)O)C(C)(C)CCC1 [Retinoic Acid, retinoic acid]
[1]; LOX blockers
  NT Binding Efficacy % increase: 180 % increase
[3]; [8]
  IC50: 7 µM

## Cc1c(C)c2c(c(C)c1O)CC[C@@](C)(CCC[C@H](C)CCC[C@H](C)CCCC(C)C)O2 [α-tocoferol]
[1]; used at 20-180 μM
  Effect on NT binding in PC3 cells: ineffective

## O=c1cc(-c2ccc(O)cc2)oc2cc(O)cc(O)c12 [Apigenin]
[2]
  Anti-cancer: +
[1]
  NT Binding Assay: +

## COC(=O)C1=C(C)NC(C)=C([N+](=O)[O-])C1c1ccccc1C(F)(F)F (stereo not drawn) [BayK-8644]
[1]; [9]
  EC50: 16 µM

## CCOC(=O)C1=C(C)NC(C)=C(C(=O)OC)C1c1cccc([N+](=O)[O-])c1 (stereo not drawn) [nitrendipine]
[3]; [6]
  IC50: 2 µM

## c1cnc2c(c1)ccc1cccnc12 [o-phenanthroline]
[2]
  Anti-cancer: +
[1]
  NT Binding Assay: +

## O=c1cc(-c2ccc(O)c(O)c2)oc2cc(O)cc(O)c12 [luteolin]
[2]
  Anti-cancer: +
[1]; [9]
  EC50: 40 µM
[1]
  NT Binding Assay: +
[3]; [6]
  IC50: 38 µM

## O=c1cc(-c2ccccc2)oc2cc(O)c(O)c(O)c12 [Baicalein, baicalein]
[2]
  Anti-cancer: +
[3]; [8]
  IC50: > 100 µM

## CC1=C(C)C(=O)C(CCCCC#CCCCC#CCO)=C(C)C1=O [AA861]
[1]; LOX blockers
  NT Binding Efficacy % increase: 155 % increase
[3]; [8]
  IC50: 7 µM

## COc1ccc(O)c(C(C)(C)C)c1 [BHA, butylated hydroxy anisole]
[1]; [9]
  EC50: 110 µM

## bisindole maleimide
[2]
  Anti-cancer: +
[1]
  NT Binding Assay: +

## O=C(NCCCCCCNC(=O)ON=C1CCCCC1)ON=C1CCCCC1 [RHC-80267]
[2]
  Anti-cancer: +
[1]
  NT Binding Assay: +

## Mevinolin
[2]
  Anti-cancer: +
[1]
  NT Binding Assay: +

## COc1ccc([C@@H]2Sc3ccccc3N(CCN(C)C)C(=O)[C@@H]2OC(C)=O)cc1 [Diltiazem, diltiazem]
[1]; [7]
  NT Binding Efficacy % increase: 38 % increase
[1]
  NT binding increased as much as / up to (fold): ≤ 1.4 fold

## Clc1ccc(COC(Cn2ccnc2)c2ccc(Cl)cc2Cl)c(Cl)c1 (stereo not drawn) [miconazole]
[3]
  IP Formation Efficacy (% decrease): 54 % decrease

## O=C(O)CN(CCOCCOCCN(CC(=O)O)CC(=O)O)CC(=O)O [EGTA, ethylene glycol tetra-acetic acid]
[1]
  Increase in NT binding: 38±6 % increase

## (−)-epigallocatechin gallate
[1]; used at 10-100 μM
  Effect on NT binding in PC3 cells: without effect

## CC1=CC(=O)c2ccccc2C1=O [vitamin K, menadione]
[1]; 180 μM
  NT binding (% of control) at 180 µM: 168 ± 8%

## Cc1ncc(CO)c(CO)c1O [pyridoxine]
[1]; [5]
  Effect on NT binding: not much affected
[1]; used at 20-180 μM
  Effect on NT binding in PC3 cells: ineffective

## CC1=C(/C=C/C(C)=C/C=C/C(C)=C/C=C/C=C(C)/C=C/C=C(C)/C=C/C2=C(C)CCCC2(C)C)C(C)(C)CCC1 [β-carotene]
[1]; used at 20-180 μM
  Effect on NT binding in PC3 cells: ineffective

## O=c1c(-c2ccc(O)cc2)coc2cc(O)cc(O)c12 [genistein]
[2]
  Anti-cancer: +
[1]
  NT Binding Assay: +

## CC(=O)OCOC(=O)CN(CC(=O)OCOC(C)=O)c1ccccc1OCCOc1ccccc1N(CC(=O)OCOC(C)=O)CC(=O)OCOC(C)=O [BAPTA-AM, 1,2-bis(o-aminophenoxy)ethane-N,N,N′,N′-tetraacetic acid tetra(acetoxymethyl) ester]
[1]; 50 μM BAPTA-AM
  Effect on NT binding: nor was NT binding altered

## O=CC[C@@H](O)[C@H](O)[C@H](O)CO [2-deoxyglucose]
[2]
  Anti-cancer: +
[1]
  NT Binding Assay: +

## N.N.[Cl][Pt][Cl] [cis-platin]
[2]
  Anti-cancer: +
[1]
  NT Binding Assay: +

## COc1ccc2c(c1)c(C1=C(c3c[nH]c4ccccc34)C(=O)NC1=O)cn2CCCN(C)C [Go-6983]
[2]
  Anti-cancer: +
[1]
  NT Binding Assay: +

## antimycin A
[2]
  Anti-cancer: +

## N[C@@H](CCC(=O)N[C@@H](CS)C(=O)NCC(=O)O)C(=O)O [glutathione]
[1]; used at 1-3 mM
  Effect on NT binding in PC3 cells: without effect

## CC(C)=CCCC(C)=CCCC(C)=CCO [farnesol]
[2]
  Anti-cancer: +
[1]
  NT Binding Assay: +

## CC/C(=C(/CC)c1ccc(O)cc1)c1ccc(O)cc1 [diethylstilbesterol]
[2]
  Anti-cancer: +
[1]
  NT Binding Assay: +

## COC(=O)c1c(C)[nH]c(C)c1C(=O)c1ccccc1Cc1ccccc1 [FPL-64176]
[1]; [9]
  EC50: 29 µM

## COc1ccc2cc1Oc1ccc(cc1)C[C@H]1c3cc(c(OC)cc3CCN1C)Oc1c(OC)c(OC)cc3c1[C@H](C2)N(C)CC3 [tetrandrine]
[1]; [7]
  NT Binding Efficacy % increase: 35 % increase

## O=C(/C=C/c1ccc(O)c(O)c1)OCCc1ccccc1 [CAPE, caffeic acid phenethyl ester]
[1]; LOX blockers
  NT Binding Efficacy % increase: 220 % increase
[1]
  NT binding increased as much as / up to (fold): ≤ 2.8 fold
[3]; [8]
  IC50: 18 µM

## Cc1cc(C)c(/C=C2\C(=O)Nc3ccccc32)[nH]1 [SU5416]
[2]
  Anti-cancer: +
